Measured values reported in patent US11478474B2, “2-(3′-(hydroxymethyl)-1-methyl-5-((5-(2-methyl-4-(oxetan-3-yl)piperazin-1-yl)pyridin-2-yl)amino)-6-oxo-1,6-dihydro-[3,4′-bipyridin]-2′-yl)-7,7-dimethyl-7,8-dihydro-2H-cyclopenta[4,5]pyrrolo[1,2-a]pyrazin-1(6H)-one as a BTK inhibitor” (HUTCHISON MEDIPHARMA LIMITED, priority 2020, dated 2022).

Assays:
[1] = system: B cell activation in rat whole blood; assay: Determination of B cell activity in whole blood of rats (anti-rat IgD induced B cell activation, flow cytometry); assay type: cell-based; conditions: anti-rat immunoglobulin D 10 μg/mL, 18 hours, inhibition of B cell activation
Protocol: Example 4 Determination of B Cell Activity in Whole Blood of Rats
1. Reagents and Materials
Peripheral whole blood of female Wistar rats;
In the determination of the compound activity, the collected peripheral whole blood of rat was added to a 96 well plate at 80 μL/well and cultured in a 5% CO2, 37° C. cell incubator. After half an hour, the test compound was diluted with PBS in a 3-fold gradient to the corresponding concentrations, and then the diluted test compound with different concentrations was added to the culture system of rat whole blood at 10 μL/well (the final concentration of the test compound was 1.0, 0.33, 0.11, 0.037, 0.012, 0.0041, 0.0014, and 0.0005 μM, the final concentration of DMSO was 0.3%, double replicate wells), or the control solution (0.3% DMSO, 6 replicate wells) was added to the corresponding well at 10 μL/well, which were incubated in the cell incubator for one hour. Then 10 μL/well of anti-rat immunoglobulin D diluted in PBS (the final concentration was 10 μg/mL) was add to the treating wells of the test compound and control wells for anti-rat immunoglobulin D, or 10 μL/well of PBS was added to the negative control wells, which were mixed well to continue the culture in a 5% CO2, 37° C. cell incubator, and incubated for 18 hours.
On the second day, the 96-well plates were taken out and the flow cytometry antibody mixture (the final concentration of anti-rat B220PE antibody was 1 μg/mL and the final concentration of anti-rat CD86 FITC antibody was 1 μg/mL) diluted with PBS was added to each well of plate, which were incubated for 30 minutes in the dark, and then 50 μL of blood from each well was pipetted to the freshly prepared 500 μL of lysis buffer to lyse red blood cells. The plates were shaken for 20 minutes, centrifuged to remove the supernatant, then washed, fixed, and detected on a flow cytometer.
The B cell activation in the sample was determined by flow dyeing method.
The average value of the proportion of activated B cells in the wells with anti-rat immunoglobulin D but without the test compound was used as the control treating well for anti-rat immunoglobulin D, and the average value of the proportion of activated B cells in the wells without immunoglobulin D stimulation and without the test compound was used as the negative control treating well. According to the B cell activation ratio in each well, the inhibition ratio (%) of each concentration was calculated, and then the IC50 value was obtained by using the 205 model in XL-Fit 5.3 software (ID Business Solutions Limited).
The inhibition ratio is calculated as follows: inhibition ratio (%)=100%−{(treating well for the test compound−negative control treating well)/(control treating well for anti-rat immunoglobulin D−negative control treating well)}×100%, wherein,
Treating well for the test compound: represents the B cell activation ratio in rat whole blood treated with anti-rat immunoglobulin D and the test compound.
Control treating well for anti-rat immunoglobulin D: represents the B cell activation ratio in rat whole blood treated with anti-rat immunoglobulin D but without the test compound.
Negative control treating well: represents the B cell activation ratio in rat whole blood without the test compound and without immunoglobulin stimulation.
Through the above-mentioned test, the compound of the present invention has a potency to inhibit B cell activation in rat whole blood.

[2] = target: phosphorylated BTK in Ramos cells (Homo sapiens (Human), UniProt Q06187); assay: Determination of phosphorylated BTK in Ramos cells (BTK phospho-Y223 HTRF); assay type: cell-based; conditions: anti-human IgM + hydrogen peroxide stimulation
phosphorylated BTK in Ramos cells, sequence (Q06187 whole entry): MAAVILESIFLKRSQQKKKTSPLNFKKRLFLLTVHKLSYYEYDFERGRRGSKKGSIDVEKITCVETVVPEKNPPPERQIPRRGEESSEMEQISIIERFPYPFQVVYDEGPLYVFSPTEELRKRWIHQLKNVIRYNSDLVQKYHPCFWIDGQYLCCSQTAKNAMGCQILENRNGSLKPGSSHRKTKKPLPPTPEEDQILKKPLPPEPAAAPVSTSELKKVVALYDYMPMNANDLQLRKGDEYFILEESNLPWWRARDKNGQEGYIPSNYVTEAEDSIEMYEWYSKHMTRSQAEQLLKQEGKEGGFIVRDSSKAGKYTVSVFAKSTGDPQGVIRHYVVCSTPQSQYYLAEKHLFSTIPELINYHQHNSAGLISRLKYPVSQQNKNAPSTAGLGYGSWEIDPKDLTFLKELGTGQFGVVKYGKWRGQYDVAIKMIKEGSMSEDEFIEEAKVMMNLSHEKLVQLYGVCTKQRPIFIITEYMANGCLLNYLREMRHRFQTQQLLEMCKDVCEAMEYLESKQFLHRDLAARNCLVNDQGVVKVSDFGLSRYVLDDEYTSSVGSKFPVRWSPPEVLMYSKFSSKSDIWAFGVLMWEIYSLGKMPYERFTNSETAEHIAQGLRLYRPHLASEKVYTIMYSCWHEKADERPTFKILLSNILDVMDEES
In short: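 Ramos cells starved 2 h in 1% FBS, then treated 1 h with compound (0.00018–3.0 μM, 0.3% DMSO). They were then stimulated 10 min at 37° C. with anti-human IgM (10 μg/mL) plus H2O2 (3.3 mM). Lysates read by BTK phospho-Y223 HTRF (665/615 nm ratio); IC50 fitted from inhibition normalized to stimulated and unstimulated controls.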

Structure (SMILES) | IC50 [1] [nM] | IC50 [2] [nM]
C[C@@H]1CN(c2ccc(Nc3cc(-c4ccnc(-n5ccn6c(c(F)c7ccccc76)c5=O)c4CO)cn(C)c3=O)nc2)[C@@H](C)CN1C1COC1 [Compound 59] | 19 | 1
Cn1cc(Nc2cc(-c3ccnc(-n4ccn5c6c(cc5c4=O)CC(C)(C)C6)c3CO)cn(C)c2=O)nn1 [Compound 28] | 78 | 2
C[C@H]1CN(C2COC2)CCN1c1ccc(Nc2cc(-c3ccnc(-n4cnn5c6c(cc5c4=O)CC(C)(C)C6)c3CO)cn(C)c2=O)nc1 [Compound 63] | 44 | 5
C[C@H]1CN(C)CCN1c1ccc(Nc2cc(-c3ccnc(-n4ccn5c6c(cc5c4=O)CC(C)(C)C6)c3CO)cn(C)c2=O)nc1 [Compound 26] | 19 | 7
C[C@H]1CN(C2COC2)CCN1c1ccc(Nc2cc(-c3ccnc(-n4ccn5c6c(cc5c4=O)CCC(F)(F)C6)c3CO)cn(C)c2=O)nc1 [Compound 56] | – | 24
C[C@H]1CN(C2COC2)CCN1c1ccc(Nc2cc(-c3ccnc(-n4ccn5c6c(cc5c4=O)CC(C)(C)C6)c3CO)n[nH]c2=O)nc1 [Compound 49] | 10 | 1
C[C@H]1CN(C2COC2)CCN1c1ccc(Nc2cc(-c3ccnc(-n4ccn5c6c(cc5c4=O)CCC6)c3CO)cn(C)c2=O)nc1 [Compound 64] | 52 | 10
C[C@H]1CN(C2COC2)CCN1c1ccc(Nc2cc(-c3ccnc(-n4ccn5c(cc6ccccc65)c4=O)c3CO)cn(C)c2=O)nc1 [Compound 74] | – | 11
C[C@H]1CN(C2COC2)CCN1c1cnc(Nc2cc(-c3ccnc(-n4ccn5c6c(cc5c4=O)CC(C)(C)C6)c3CO)cn(C)c2=O)nc1 [Compound 44] | – | 18
COCCN1CCN(c2ccc(Nc3cc(-c4ccnc(-n5ccn6c7c(cc6c5=O)CC(C)(C)C7)c4CO)cn(C)c3=O)nc2)[C@@H](C)C1 [Compound 8] | 17 | 2
C[C@@H]1CN(c2ccc(Nc3cc(-c4ccnc(-n5ccn6c7c(cc6c5=O)CC(C)(C)C7)c4CO)cn(C)c3=O)nc2)[C@@H](C)CN1C1COC1 [Compound 27] | 5 | 1
CCn1cc(Nc2cc(-c3ccnc(-n4ccn5c6c(cc5c4=O)CC(C)(C)C6)c3CO)cn3ncnc23)nn1 [Compound 71] | 92 | 6
C[C@@H]1CN(c2ccc(Nc3cc(-c4ccnc(-n5ccn6c7c(cc6c5=O)CCC7)c4CO)cn(C)c3=O)nc2)[C@@H](C)CN1C1COC1 [Compound 2, 2-(5-((5-((2S,5R)-2,5-dimethyl-4-(oxetan-3-yl)piperazin-1-yl)pyridin-2-yl)amino)-3′-(hydroxymethyl)-1-methyl-6-oxo-1,6-dihydro-[3,4′-bispyridin]-2′-yl)-7,8-dihydro-2H-cyclopenta[4,5]pyrrolo[1,2-a]pyrazin-1(6H)-one] | 54 | 10
COCCN(C)c1ccc(Nc2cc(-c3ccnc(-n4ccn5c6c(cc5c4=O)CC(C)(C)C6)c3CO)cn(C)c2=O)nc1 [Compound 50] | 84 | 2
Cn1cc(-c2ccnc(-n3ccn4c5c(cc4c3=O)CC(C)(C)C5)c2CO)cc(Nc2ccc(N3CCN(C4COC4)CC3)cn2)c1=O [Compound 9] | – | 4
C[C@H]1CN(C2COC2)CCN1c1cnc(Nc2cc(-c3ccnc(-n4ccn5c6c(cc5c4=O)CC(C)(C)C6)c3CO)cn(C)c2=O)cn1 [Compound 43] | 52 | 2
C[C@H]1CN(C2COC2)CCN1c1ccc(Nc2cc(-c3ccnc(-n4ncn5c6c(cc5c4=O)CC(C)(C)C6)c3CO)cn(C)c2=O)nc1 [Compound 79] | 6 | 2
C[C@H]1CN(C2COC2)CCN1c1ccc(Nc2cc(-c3ccnc(-n4ccn5c(c(F)c6cc(F)ccc65)c4=O)c3CO)cn(C)c2=O)nc1 [Compound 60] | 34 | 3
C[C@H]1CN(C2COC2)CCN1c1ccc(Nc2cc(-c3ccnc(-n4ccn5c(c(F)c6ccccc65)c4=O)c3CO)cn(C)c2=O)nc1 [Compound 57] | 21 | 3
CC1CCc2cc3c(=O)n(-c4nccc(-c5cc(Nc6ccc(N7CCN(C8COC8)C[C@@H]7C)cn6)c(=O)n(C)c5)c4CO)ccn3c2C1 (mixture of isomers) [Compound 78] | 41 | 3
C[C@H]1CN(C2COC2)CCN1c1ccc(Nc2cc(-c3ccnc(-n4ccn5c6c(cc5c4=O)CC(F)(F)CC6)c3CO)cn(C)c2=O)nc1 [Compound 58] | 6 | 4
C[C@H]1CN(C2COC2)CCN1c1ccc(Nc2cc(-c3ccnc(-n4ccn5c6c(cc5c4=O)CC(C)(C)C6)c3CO)cn(C)c2=O)nc1 [Compound 19] | 3 | 4
Cn1cc(-c2ccnc(-n3ccn4c5c(cc4c3=O)CC(C)(C)C5)c2CO)cc(Nc2cn(CCF)nn2)c1=O [Compound 31] | 93 | 6
C[C@H]1CN(C2COC2)CCN1c1ccc(Nc2cc(-c3ccnc(-n4ccn5c(cc6cc(F)ccc65)c4=O)c3CO)cn(C)c2=O)nc1 [Compound 75] | 85 | 7
C[C@H]1CN(C2COC2)CCN1c1ccc(Nc2cc(-c3ccnc(-n4ccn5c6c(cc5c4=O)CC(C)(C)C6)c3CO)cn3c(F)cnc23)nc1 [Compound 23] | 277 | 30
CN1CCN(C(=O)c2ccc(Nc3cc(-c4ccnc(-n5ccn6c7c(cc6c5=O)CC(C)(C)C7)c4CO)cn(C)c3=O)nc2)CC1 [Compound 48] | 26 | 6
C[C@H]1CN(C2COC2)CCN1c1ccc(Nc2cc(-c3ccnc(-n4ccn5c6c(cc5c4=O)CC(C)(C)C6)c3CO)cn3ncnc23)nc1 [Compound 21] | 24 | 15
C[C@H]1CN(C2COC2)CCN1c1ccc(Nc2cc(-c3ccnc(-n4ccn5c6c(cc5c4=O)CC(C)(C)C6)c3CO)nn(C)c2=O)nc1 [Compound 22] | 34 | 18
